This is an account of results in US20220332774A1, “THERAPEUTIC MITOCHONDRIAL PEPTIDES” (priority 2019, published 2022).

One assay has as its system 3T3-L1 Mouse Adipocytes. The experiment in a line: Free fatty acid levels in cultured 3T3-L1 mouse adipocytes (isoproterenol stimulated). It counts as cell-based. Conditions: free fatty acid in medium; 5 μM peptide, 20-22 h pre-incubation then 3 h with 0.1 nM isoproterenol; isoproterenol alone = 100%. In outline: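 3T3-L1 cells differentiated 12 days, insulin withdrawn, then peptides added on day 13 at 5 μM (0.1% DMSO) for 20-22 h at 37° C. After 3 h in assay buffer, medium free fatty acids read at 540 nm. Values expressed as percent of 0.1 nM isoproterenol-alone control.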

A further assay has as its system H4-IIE Cells. The experiment in a line: Glucose production in cultured H4-IIE cells. In kind it is cell-based, rat. Conditions: glucose concentration in medium relative to untreated cells; 5 μM peptide, 24 h. Put shortly:
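Rat H4-IIE hepatoma cells primed overnight in glucose-free DMEM with 2 mM pyruvate and 10 mM lactate, then treated 24 h at 37 °C with 5 μM peptide (0.1% DMSO; concentration assumes ~2000 Da). Medium glucose measured colorimetrically at 570 nm. Values are percent of untreated-cell glucose production; 0.5-1 nM insulin served as inhibitor reference.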

In the next assay the test system is C2C12 Cells. The experiment in a line: Glucose utilization in cultured C2C12 cells (myotubes). In kind it is cell-based, mouse. Conditions: glucose concentration in medium relative to untreated cells; 5 μM peptide, 22 h. Put shortly:
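Differentiated mouse myotubes (5 days in 2% horse serum) serum-starved 5 h, then treated 22 h at 37 °C with peptide at 5 μM final (0.1% DMSO) in low-glucose (1 g/L) DMEM. Glucose remaining in medium measured colorimetrically at 570 nm. Expressed as percent of untreated control, from 2–3 experiments in triplicate.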

As for “90 (MMSVWKVAVQTFNCYYYVLQALIN) [compound 90]”, in the assay on 3T3-L1 Mouse Adipocytes, the “Percent of Isoproterenol Control Activity” value was 101%. Besides, the “Percent of Control Activity” value with H4-IIE Cells was found to be 104%; in the assay with C2C12 Cells, 97%.

As to “191 (LGWGWPGGWVWGGGFMVEERWWEL) [compound 191]”, in the assay with 3T3-L1 Mouse Adipocytes, the “Percent of Isoproterenol Control Activity” value is recorded as 101%. The “Percent of Control Activity” value is on record as 111% in the assay with H4-IIE Cells and 95% in the assay on C2C12 Cells.

For the substance “200 (RLLAWGNTWWQLLWNEGLFFWLEL) [compound 200]”, the “Percent of Isoproterenol Control Activity” value in the assay with 3T3-L1 Mouse Adipocytes is 104%. For the same substance, the results for the “Percent of Control Activity” value in the assay with H4-IIE Cells and in the assay on C2C12 Cells were 97% and 93%, respectively.

As to 41 (MGSSRINPDPSPS) [compound 41], the “Percent of Isoproterenol Control Activity” value in the assay on 3T3-L1 Mouse Adipocytes was 99%. Also, the “Percent of Control Activity” value came out at 108% in the assay with H4-IIE Cells and 109% in the assay on C2C12 Cells.

“109 (MQNPPHSSPHSSPLPRYSYLSPLLY) [compound 109]”: the “Percent of Isoproterenol Control Activity” value in the assay on 3T3-L1 Mouse Adipocytes stood at 94%. The “Percent of Control Activity” value stood at 105% in the assay with H4-IIE Cells and 95% in the assay with C2C12 Cells.

60 (MLEIVMGMETYHMSNA) [compound 60]: the “Percent of Isoproterenol Control Activity” value in the assay with 3T3-L1 Mouse Adipocytes is 94%. Moreover, the results for the “Percent of Control Activity” value in the assay with H4-IIE Cells and in the assay on C2C12 Cells were 105% and 101%, respectively.

For the substance 61 (MLFMRGNAMSGAPII) [compound 61], the “Percent of Isoproterenol Control Activity” value in the assay with 3T3-L1 Mouse Adipocytes is listed as 86%. For the same substance, the “Percent of Control Activity” value in the assay with H4-IIE Cells was found to be 107%; in the assay with C2C12 Cells it was 104%.

Consider “196 (LVPFDRGDLEGELTGTGMLACVIL) [compound 196]”, for which the “Percent of Isoproterenol Control Activity” value with 3T3-L1 Mouse Adipocytes was found to be 98%. For the same substance, the “Percent of Control Activity” value in the assay with H4-IIE Cells came out at 116%; in the assay on C2C12 Cells, 97%.

As for 92 (MMTWSPWKPVATKNVEP) [compound 92], the “Percent of Isoproterenol Control Activity” value in the assay with 3T3-L1 Mouse Adipocytes is recorded as 99%. Besides, the “Percent of Control Activity” value is given as 124% with H4-IIE Cells and 93% in the assay with C2C12 Cells.

26 (MGACQGGSDESN) [compound 26]: the “Percent of Isoproterenol Control Activity” value with 3T3-L1 Mouse Adipocytes was 93%. The “Percent of Control Activity” value came out at 97% with H4-IIE Cells and 99% in the assay with C2C12 Cells.

Regarding 176 (MKNIEAPLAW) [compound 176], in the assay with 3T3-L1 Mouse Adipocytes, the “Percent of Isoproterenol Control Activity” value came out at 95%. Also, the entries for the “Percent of Control Activity” value with H4-IIE Cells and with C2C12 Cells were 108% and 103%, respectively.

With 179 (MSSSMMGEVASC) [compound 179], in the assay with 3T3-L1 Mouse Adipocytes, the “Percent of Isoproterenol Control Activity” value is listed as 102%. In addition, the “Percent of Control Activity” value in the assay with H4-IIE Cells stood at 100%; with C2C12 Cells, 105%.

Turning to 43 (MGVGMEWGLLLRRGR) [compound 43], in the assay on 3T3-L1 Mouse Adipocytes, the “Percent of Isoproterenol Control Activity” value is on record as 103%. The “Percent of Control Activity” value in the assay on H4-IIE Cells turned out to be 112%; in the assay on C2C12 Cells, 101%.

For the substance 163 (MWMPPTLPHIR) [compound 163], the “Percent of Isoproterenol Control Activity” value in the assay on 3T3-L1 Mouse Adipocytes was determined as 87%. Moreover, the entries for the “Percent of Control Activity” value with H4-IIE Cells and in the assay with C2C12 Cells were 110% and 105%, respectively.

As for “205 (VQTVSISWASEMLVLVSFVVSV) [compound 205]”, the “Percent of Isoproterenol Control Activity” value in the assay with 3T3-L1 Mouse Adipocytes is on record as 105%. Also, the “Percent of Control Activity” value with H4-IIE Cells stood at 102%; with C2C12 Cells, 99%.

On to “13 (MCSCVYVYSYCKYMVCSHDKP) [compound 13]”, for which the “Percent of Isoproterenol Control Activity” value in the assay with 3T3-L1 Mouse Adipocytes turned out to be 92%. The “Percent of Control Activity” value turned out to be 87% in the assay with H4-IIE Cells and 101% with C2C12 Cells.

“102 (MPLRLEWVQWGVGGWPWVCC) [compound 102]”: in the assay on 3T3-L1 Mouse Adipocytes, the “Percent of Isoproterenol Control Activity” value is given as 120%. The entries for the “Percent of Control Activity” value with H4-IIE Cells and in the assay with C2C12 Cells were 108% and 102%, respectively.

On to 129 (MSYRAHTPKMLVMPFPY) [compound 129], for which the “Percent of Isoproterenol Control Activity” value in the assay on 3T3-L1 Mouse Adipocytes worked out at 115%. Further, the “Percent of Control Activity” value in the assay on H4-IIE Cells is 90%; in the assay on C2C12 Cells it was 110%.

56 (MKNHRCISTT) [compound 56]: in the assay on 3T3-L1 Mouse Adipocytes, the “Percent of Isoproterenol Control Activity” value was 89%. Besides, the “Percent of Control Activity” value is 112% in the assay with H4-IIE Cells and 104% in the assay with C2C12 Cells.
